#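 Five concentrations, 48 hours, 96-well plates. GI50 = concentration required for 50% inhibition of growth.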 Calls of active or inactive are those of the source. No stated cut-off is given here; in the data, active = GI50 up to about 1.1 µM and inactive = higher.
# How the values were obtained:
# Test in all cases: growth of human tumour cells (NCI), 48 h
# A549 = test system: A549
# ACHN = test system: ACHN
# BT-549 = test system: BT-549
# DU-145 = test system: DU-145
# HOP-62 = test system: HOP-62
# Hs-578T = test system: Hs-578T
# MDA-MB-231 = test system: MDA-MB-231
# MDA-MB-435 = test system: MDA-MB-435
# NCI-H522 = test system: NCI-H522
# NCI/ADR-RES = test system: NCI/ADR-RES
# OVCAR-8 = test system: OVCAR-8
# SK-MEL-2 = test system: SK-MEL-2
# T47D = test system: T47D
# TK-10 = test system: TK-10
# NCI-H460 = test system: NCI-H460
# SF-539 = test system: SF-539
# SNB-19 = test system: SNB-19
# SR = test system: SR
# CCRF-CEM = test system: CCRF-CEM
SMILES,GI50 (A549),GI50 (ACHN),GI50 (BT-549),GI50 (DU-145),GI50 (HOP-62),GI50 (Hs-578T),GI50 (MDA-MB-231),GI50 (MDA-MB-435),GI50 (NCI-H522),GI50 (NCI/ADR-RES),GI50 (OVCAR-8),GI50 (SK-MEL-2),GI50 (T47D),GI50 (TK-10),GI50 (NCI-H460),GI50 (SF-539),GI50 (SNB-19),GI50 (SR),GI50 (CCRF-CEM)
CCCCOC(=O)C1CC[C@H]2[C@@H]3CCc4cc(OC(=O)c5cccc6c(=O)c7ccccc7[nH]c56)ccc4[C@H]3CC[C@]12C (stereo partly drawn),9.35 µM (inactive),8.69 µM (inactive),8.17 µM (inactive),8.17 µM (inactive),9.35 µM (inactive),12.9 µM (inactive),6.98 µM (inactive),8.63 µM (inactive),9.64 µM (inactive),11 µM (inactive),10.7 µM (inactive),9.91 µM (inactive),7.33 µM (inactive),7.96 µM (inactive),,,,,
Cc1oc2c(c1C)S(=O)(=O)C(C#N)=CN2,> 100 µM (inactive),> 100 µM (inactive),> 100 µM (inactive),> 100 µM (inactive),> 100 µM (inactive),> 100 µM (inactive),> 100 µM (inactive),> 100 µM (inactive),> 100 µM (inactive),> 100 µM (inactive),> 100 µM (inactive),> 100 µM (inactive),> 100 µM (inactive),> 100 µM (inactive),> 100 µM (inactive),> 100 µM (inactive),> 100 µM (inactive),> 100 µM (inactive),
CC(=O)O[C@H]1CC[C@@]2(C)C(=CC[C@@H]3[C@@H]2CC[C@]2(C)C(=O)/C(=C\c4ccccc4)C[C@@H]32)C1,> 100 µM (inactive),> 100 µM (inactive),> 100 µM (inactive),> 100 µM (inactive),94 µM (inactive),,> 100 µM (inactive),> 100 µM (inactive),51.8 µM (inactive),> 100 µM (inactive),> 100 µM (inactive),> 100 µM (inactive),> 100 µM (inactive),> 100 µM (inactive),> 100 µM (inactive),> 100 µM (inactive),> 100 µM (inactive),> 100 µM (inactive),> 100 µM (inactive)
Cc1ccc(C(=O)Nc2ccc(S(=O)(=O)O)c3cc(S(=O)(=O)O)cc(S(=O)(=O)O)c23)cc1N,,> 100 µM (inactive),> 100 µM (inactive),> 100 µM (inactive),> 100 µM (inactive),> 100 µM (inactive),> 100 µM (inactive),,> 100 µM (inactive),> 100 µM (inactive),> 100 µM (inactive),> 100 µM (inactive),> 100 µM (inactive),> 100 µM (inactive),> 100 µM (inactive),> 100 µM (inactive),> 100 µM (inactive),> 100 µM (inactive),> 100 µM (inactive)
CC1=CC[C@H](C)C(C)(C)C1/C=C/C(C)=C/CC[C@@]1(CO)[C@H](CCCO)/C(=C(/C)C=O)CC[C@]1(C)O (stereo partly drawn),0.877 µM (active),3.68 µM (inactive),,,,,,,4.06 µM (inactive),,15 µM (inactive),15.8 µM (inactive),,5.5 µM (inactive),1.11 µM (active),6.78 µM (inactive),8.51 µM (inactive),0.493 µM (active),4.21 µM (inactive)
NC(=O)N/N=C\CC(O)(C(F)(F)Cl)C(F)(F)Cl,> 10 µM (inactive),> 10 µM (inactive),,> 10 µM (inactive),> 10 µM (inactive),> 10 µM (inactive),> 10 µM (inactive),> 10 µM (inactive),> 10 µM (inactive),> 10 µM (inactive),> 10 µM (inactive),> 10 µM (inactive),> 10 µM (inactive),> 10 µM (inactive),> 10 µM (inactive),> 10 µM (inactive),> 10 µM (inactive),> 10 µM (inactive),> 10 µM (inactive)
Cn1c2n/c(=N\c3ccc(Cl)cc3)[n+]3ccc4ccccc4c3c-2c([O-])n1-c1ccccc1,,> 100 µM (inactive),> 100 µM (inactive),> 100 µM (inactive),> 100 µM (inactive),> 100 µM (inactive),> 100 µM (inactive),> 100 µM (inactive),> 100 µM (inactive),> 100 µM (inactive),> 100 µM (inactive),> 100 µM (inactive),> 100 µM (inactive),> 100 µM (inactive),> 100 µM (inactive),,> 100 µM (inactive),> 100 µM (inactive),
CCOC(=O)C(OP(=O)(OCC)OCC)C(F)(F)F (stereo not drawn),,> 100 µM (inactive),> 100 µM (inactive),> 100 µM (inactive),> 100 µM (inactive),> 100 µM (inactive),> 100 µM (inactive),> 100 µM (inactive),> 100 µM (inactive),,,> 100 µM (inactive),> 100 µM (inactive),> 100 µM (inactive),> 100 µM (inactive),> 100 µM (inactive),> 100 µM (inactive),> 100 µM (inactive),> 100 µM (inactive)
CCOC(=O)C1Cc2c(cc3c4c(cccc24)N(C(C)=O)C3)N(C)C1 (stereo not drawn),> 100 µM (inactive),7.91 µM (inactive),,> 100 µM (inactive),> 100 µM (inactive),2.49 µM (inactive),1.4 µM (inactive),2.56 µM (inactive),0.0681 µM (active),1.64 µM (inactive),3.97 µM (inactive),> 100 µM (inactive),5.58 µM (inactive),> 100 µM (inactive),> 100 µM (inactive),3.18 µM (inactive),> 100 µM (inactive),41.6 µM (inactive),0.867 µM (active)
Cc1cccc(C(O)c2cccnc2)c1O (stereo not drawn),> 100 µM (inactive),> 100 µM (inactive),> 100 µM (inactive),> 100 µM (inactive),> 100 µM (inactive),> 100 µM (inactive),> 100 µM (inactive),> 100 µM (inactive),> 100 µM (inactive),> 100 µM (inactive),> 100 µM (inactive),,> 100 µM (inactive),> 100 µM (inactive),> 100 µM (inactive),> 100 µM (inactive),> 100 µM (inactive),> 100 µM (inactive),> 100 µM (inactive)
O=C1Nc2ccccc2/C1=N/Nc1ccc([N+](=O)[O-])cc1[N+](=O)[O-],12.5 µM (inactive),7.08 µM (inactive),12.1 µM (inactive),7.82 µM (inactive),9.04 µM (inactive),6.37 µM (inactive),13.2 µM (inactive),98.4 µM (inactive),12.9 µM (inactive),8.09 µM (inactive),9.59 µM (inactive),,15.7 µM (inactive),9.08 µM (inactive),7.89 µM (inactive),2.48 µM (inactive),19.4 µM (inactive),25.6 µM (inactive),> 100 µM (inactive)
Nc1nnc2ccc(Cl)cc2[n+]1[O-],,62.7 µM (inactive),> 100 µM (inactive),> 100 µM (inactive),> 100 µM (inactive),41.7 µM (inactive),37.9 µM (inactive),57 µM (inactive),38 µM (inactive),40.1 µM (inactive),24.9 µM (inactive),49.3 µM (inactive),44.9 µM (inactive),> 100 µM (inactive),,,> 100 µM (inactive),46.3 µM (inactive),29.6 µM (inactive)
O=C(c1ccccc1)C1C(c2ccccc2)N1S(=O)(=O)c1ccccc1 (stereo not drawn),> 100 µM (inactive),,> 100 µM (inactive),> 100 µM (inactive),> 100 µM (inactive),> 100 µM (inactive),> 100 µM (inactive),> 100 µM (inactive),> 100 µM (inactive),> 100 µM (inactive),> 100 µM (inactive),> 100 µM (inactive),> 100 µM (inactive),> 100 µM (inactive),,> 100 µM (inactive),,,> 100 µM (inactive)
Cc1ccc(NC(=O)S(N)(c2ccc(C)cc2)[N+](=O)[O-])cc1 (stereo not drawn),,,> 100 µM (inactive),89.7 µM (inactive),> 100 µM (inactive),> 100 µM (inactive),> 100 µM (inactive),> 100 µM (inactive),,> 100 µM (inactive),> 100 µM (inactive),> 100 µM (inactive),38 µM (inactive),> 100 µM (inactive),> 100 µM (inactive),,> 100 µM (inactive),> 100 µM (inactive),> 100 µM (inactive)
O=c1c(-c2ccccc2)c(SCCN2CCCCCC2)n(-c2ccccc2)c(=S)n1-c1ccccc1,,54.6 µM (inactive),> 100 µM (inactive),23.6 µM (inactive),46.6 µM (inactive),39.8 µM (inactive),,33 µM (inactive),20.3 µM (inactive),68.2 µM (inactive),80 µM (inactive),,,48.4 µM (inactive),46.8 µM (inactive),> 100 µM (inactive),,21.8 µM (inactive),8.45 µM (inactive)
C=C[C@@H]1C(CO)=CCC2[C@H]1CCC1C(C)(C)C(=O)CC[C@]21C (stereo partly drawn),> 100 µM (inactive),> 100 µM (inactive),,> 100 µM (inactive),> 100 µM (inactive),> 100 µM (inactive),,> 100 µM (inactive),> 100 µM (inactive),> 100 µM (inactive),,> 100 µM (inactive),> 100 µM (inactive),> 100 µM (inactive),> 100 µM (inactive),> 100 µM (inactive),> 100 µM (inactive),> 100 µM (inactive),> 100 µM (inactive)
